From ChEMBL document CHEMBL3045445, “Structural features of GABAA receptor antagonists: pharmacophore modeling and 3D-QSAR studies” (Med Chem Res, 2013)

experiment: Displacement of [3H]muscimol from GABAA receptor in Sprague-Dawley rat brain membrane`after 60 mins by TopCount microplate scintillation counting analysis

Row | Compound | Ki [nM] | pKi
1 | Oc1noc(C2CCNCC2)c1-c1cccc2ccccc12 | 820 | 6.09
2 | Oc1noc(C2CCNCC2)c1Cc1ccc2c(Br)cccc2c1 | 80 | 7.1
3 | Oc1noc(C2CCNCC2)c1Cc1ccc2cccc(Br)c2c1 | 45 | 7.35
4 | Oc1noc(C2CCNCC2)c1Cc1ccc2ccc(Br)cc2c1 | 109 | 6.96
5 | Oc1noc(C2CCNCC2)c1Cc1ccc2ccccc2c1F | 19 | 7.72
6 | CSc1c(Cc2c(O)noc2C2CCNCC2)ccc2ccccc12 | 28 | 7.55
7 | Oc1noc(C2CCNCC2)c1Cc1ccc2ccccc2c1Cl | 16 | 7.8
8 | CC1(c2cc(O)no2)CCNCC1 | 37000 | 4.43
9 | Oc1noc(C2CCNCC2)c1Cc1cccc2ccccc12 | 100 | 7
10 | Oc1noc(C2CCNCC2)c1-c1ccc2ccccc2c1 | 36 | 7.44
11 | On1nc(Cc2cccc3ccccc23)c(C2CCNCC2)c1-c1ccccc1 | 22 | 7.66
12 | N#Cc1c(Cc2c(O)noc2C2CCNCC2)ccc2ccccc12 | 28 | 7.55

The remaining lines, values ahead:

Row | Ki [nM] | pKi | Compound
13 | 21 | 7.68 | Oc1noc(C2CCNCC2)c1Cc1ccc2ccccc2c1-c1ccccc1
14 | 1500 | 5.82 | On1nc(-c2ccccc2)c(C2CCNCC2)c1Cc1cccc2ccccc12
15 | 490 | 6.31 | Oc1noc(C2CCNCC2)c1CCc1ccc2ccccc2c1
16 | 960 | 6.02 | Oc1noc(C2CCNCC2)c1C(c1ccccc1)c1ccccc1
17 | 700 | 6.16 | Oc1noc(C2CCNCC2)c1CCCC(c1ccccc1)c1ccccc1
